# Measurements: EP1247803A2, “Indolinone compounds suitable for modulation of protein kinases” (Sugen, Inc., priority 1996, dated 1998)
# Key:
# PDGF-R = PDGF-R (Homo sapiens, UniProt P09619); test: PDGF-R ELISA; assay type: cell-based
# Excerpt: A PDGF-R ELISA is described in International Patent Publication No. WO 96/40116, published December 19, 1996 by Tang et al.
# EGFR = biological target: T1, EGFR (Homo sapiens, UniProt P00533); test: EGFR ELISA assay (in vitro kinase activity, EGFR captured from A431 cell lysate); assay type: biochemical; design: concentration or dose not given beside the values
# T1 construct: Add 7 ug A431 cell lysate per well (EGFR source); endogenous in cells; host or cells: A431
# T1 sequence (P00533 25-1210): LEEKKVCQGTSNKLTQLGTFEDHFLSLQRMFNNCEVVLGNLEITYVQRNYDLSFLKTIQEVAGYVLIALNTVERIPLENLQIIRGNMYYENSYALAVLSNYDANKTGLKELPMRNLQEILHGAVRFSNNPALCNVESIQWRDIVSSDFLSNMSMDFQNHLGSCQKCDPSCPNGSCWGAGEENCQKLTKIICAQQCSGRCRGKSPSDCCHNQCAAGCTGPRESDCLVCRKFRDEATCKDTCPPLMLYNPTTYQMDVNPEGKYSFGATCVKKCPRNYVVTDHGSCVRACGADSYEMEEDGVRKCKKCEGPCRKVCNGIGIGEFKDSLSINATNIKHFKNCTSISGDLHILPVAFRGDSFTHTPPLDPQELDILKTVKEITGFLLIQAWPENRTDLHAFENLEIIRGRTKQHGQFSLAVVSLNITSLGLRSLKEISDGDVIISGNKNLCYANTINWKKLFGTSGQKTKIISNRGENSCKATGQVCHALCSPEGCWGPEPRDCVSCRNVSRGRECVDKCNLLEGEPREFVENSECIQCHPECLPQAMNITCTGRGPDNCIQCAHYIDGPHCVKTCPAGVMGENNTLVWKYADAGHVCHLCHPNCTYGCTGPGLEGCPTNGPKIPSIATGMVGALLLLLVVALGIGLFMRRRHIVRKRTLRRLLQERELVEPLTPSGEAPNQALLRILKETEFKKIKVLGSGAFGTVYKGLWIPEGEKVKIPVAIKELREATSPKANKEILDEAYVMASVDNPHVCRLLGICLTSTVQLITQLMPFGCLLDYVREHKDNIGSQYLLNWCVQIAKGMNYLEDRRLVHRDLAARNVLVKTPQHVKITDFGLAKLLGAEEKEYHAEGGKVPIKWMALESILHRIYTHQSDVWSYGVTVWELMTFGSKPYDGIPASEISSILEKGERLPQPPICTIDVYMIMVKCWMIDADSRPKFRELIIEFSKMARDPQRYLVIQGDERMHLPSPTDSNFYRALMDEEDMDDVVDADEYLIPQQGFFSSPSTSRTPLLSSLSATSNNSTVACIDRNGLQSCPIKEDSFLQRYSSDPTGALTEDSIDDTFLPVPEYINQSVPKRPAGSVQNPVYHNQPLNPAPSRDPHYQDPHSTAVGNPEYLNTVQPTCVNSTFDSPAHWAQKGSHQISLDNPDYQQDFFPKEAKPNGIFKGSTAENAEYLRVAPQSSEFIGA
# Procedure, shortened: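 EGFR from A431 lysate was captured on plates coated with anti-EGFR antibody. Compounds were added 30 min before a 5 min phosphorylation with 3 µM ATP/5 mM MnCl2, which was stopped with 20 mM EDTA. Phosphotyrosine was detected with rabbit anti-phosphotyrosine, then a peroxidase-conjugated secondary and ABTS/H2O2, read at 410 nm.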
# Sequence of PDGF-R (P09619 33-1106, species assumed): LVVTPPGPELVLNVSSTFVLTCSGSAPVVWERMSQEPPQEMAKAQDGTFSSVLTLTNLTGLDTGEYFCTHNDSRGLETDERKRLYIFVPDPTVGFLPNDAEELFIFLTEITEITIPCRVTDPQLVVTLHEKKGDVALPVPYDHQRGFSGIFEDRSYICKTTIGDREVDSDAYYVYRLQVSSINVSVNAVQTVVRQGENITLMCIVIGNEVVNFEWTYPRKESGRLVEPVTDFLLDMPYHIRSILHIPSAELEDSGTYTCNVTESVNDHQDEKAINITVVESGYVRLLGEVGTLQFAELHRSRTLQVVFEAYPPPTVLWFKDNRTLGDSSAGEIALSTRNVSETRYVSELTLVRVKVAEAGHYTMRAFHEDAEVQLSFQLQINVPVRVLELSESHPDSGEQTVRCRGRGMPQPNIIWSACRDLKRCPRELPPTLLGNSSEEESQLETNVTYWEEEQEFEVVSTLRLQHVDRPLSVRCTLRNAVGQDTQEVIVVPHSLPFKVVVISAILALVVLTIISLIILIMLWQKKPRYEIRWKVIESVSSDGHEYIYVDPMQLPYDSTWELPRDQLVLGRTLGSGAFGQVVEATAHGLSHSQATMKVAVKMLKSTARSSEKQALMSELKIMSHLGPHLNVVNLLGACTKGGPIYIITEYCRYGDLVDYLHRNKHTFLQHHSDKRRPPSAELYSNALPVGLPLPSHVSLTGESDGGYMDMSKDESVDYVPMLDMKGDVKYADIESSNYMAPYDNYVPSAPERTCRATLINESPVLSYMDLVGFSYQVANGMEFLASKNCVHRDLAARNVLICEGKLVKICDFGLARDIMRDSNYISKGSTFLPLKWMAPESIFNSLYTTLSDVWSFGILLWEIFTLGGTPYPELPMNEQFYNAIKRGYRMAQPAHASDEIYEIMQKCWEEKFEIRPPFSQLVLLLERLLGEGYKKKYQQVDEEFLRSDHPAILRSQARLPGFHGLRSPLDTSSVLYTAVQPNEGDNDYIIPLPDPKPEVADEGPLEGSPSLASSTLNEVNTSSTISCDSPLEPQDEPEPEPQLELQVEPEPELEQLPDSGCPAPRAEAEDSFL
Structure (SMILES),PDGF Kinase %Inhibition (PDGF-R),Biochem EGFR %Inhibition (EGFR)
COc1cccc(OC)c1C=C1C(=O)Nc2ccc(S(=O)(=O)Nc3ccc(C(F)(F)F)cc3)cc21 [10728/E03],12.0%,9.5%
COc1ccc2ccccc2c1C=C1C(=O)Nc2ccc(Br)c(C)c21 [10729/C02],9.1%,16.9%
O=C1Nc2ccc(S(=O)(=O)Nc3ccc(C(F)(F)F)cc3)cc2C1=Cc1ccccn1 [10729/E07],29.6%,26.7%
CCOC(=O)c1c(C)[nH]c(C=C2C(=O)Nc3ccc(I)cc32)c1C [10718/B02],,24.9%
O=C1Nc2c(Br)cc(Br)cc2C1=Cc1ccc([N+](=O)[O-])o1 [10718/A11],,21.2%
COc1ccc2ccccc2c1C=C1C(=O)Nc2ccc(I)cc21 [10729/B02],-10.2%,34.9%
O=C1Nc2ccc(I)cc2C1=Cc1ccc2ccccc2c1O [10718/B04],,8.5%
COc1cc(C=C2C(=O)Nc3ccc(CCCl)cc32)cc2c1OCO2 [10728/G11],-12.8%,16.1%
O=C1Nc2ccc(I)cc2C1=Cc1ccncc1 [10729/B09],-6.4%,51.6%
Cc1c(Br)ccc2c1C(=Cc1ccc(N3CCCC3)cc1)C(=O)N2 [10729/C10],3.5%,45.7%
O=C1Nc2ccc(S(=O)(=O)Nc3ccc(C(F)(F)F)cc3)cc2C1=Cc1c(F)cccc1C(F)(F)F [10728/E09],22.3%,0.1%
Cc1ccsc1C=C1C(=O)Nc2ccc(S(=O)(=O)Nc3ccc(C(F)(F)F)cc3)cc21 [10729/E05],29.9%,12.6%
O=C(O)COc1ccccc1C=C1C(=O)Nc2ccc(S(=O)(=O)Nc3ccc(C(F)(F)F)cc3)cc21 [10728/E10],13.8%,-20.8%
O=C1Nc2ccc(S(=O)(=O)Nc3ccc(C(F)(F)F)cc3)cc2C1=Cc1ccc2c(c1)Cc1ccccc1-2 [10728/E06],12.0%,-4.7%
O=C1Nc2c(Br)cc(Br)cc2C1=CC1C=CCCC1 (centres unmarked) [10729/A11],-11.7%,15.5%
Cc1ccsc1C=C1C(=O)Nc2c(Br)cc(Br)cc21 [10729/A05],-6.8%,23.4%
COc1ccc(OC)c(C=C2C(=O)Nc3ccc(CCCl)cc32)c1 [10728/G02],0.9%,-10.2%
COc1cc(C=C2C(=O)Nc3ccc(S(=O)(=O)Nc4ccc(C(F)(F)F)cc4)cc32)cc(OC)c1 [10728/E04],23.2%,10.1%
O=C1Nc2ccc(S(=O)(=O)Nc3ccc(C(F)(F)F)cc3)cc2C1=Cc1cc(C(F)(F)F)ccc1F [10728/E08],29.4%,5.1%
CNS(=O)(=O)c1ccc2c(c1)C(=Cc1sccc1C)C(=O)N2 [10729/D05],2.3%,22.1%
O=C1Nc2c(Br)cc(Br)cc2C1=Cc1cccc(Oc2ccccc2)c1 [10729/A06],-8.6%,36.5%

Structure (SMILES),PDGF Kinase %Inhibition (PDGF-R),Biochem EGFR %Inhibition (EGFR)
Cc1c(Br)ccc2c1C(=Cc1cccnc1)C(=O)N2 [10729/C08],-13.6%,25.4%
Cc1c(Br)ccc2c1C(=Cc1ccccn1)C(=O)N2 [10729/C07],-1.8%,60.8%
COc1ccc(C=C2C(=O)Nc3ccc(Br)c(C)c32)c2ccccc12 [10729/C03],13.7%,25.7%
Cc1ccsc1C=C1C(=O)Nc2ccc(I)cc21 [10729/B05],-25.7%,50.6%
COc1ccc(C=C2C(=O)Nc3ccc(S(=O)(=O)Nc4ccc(C(F)(F)F)cc4)cc32)c2ccccc12 [10729/E03],29.2%,20.1%
COc1cc(N(C)C)ccc1C=C1C(=O)Nc2ccc(CCCl)cc21 [10728/G05],-4.4%,7.2%
CNS(=O)(=O)c1ccc2c(c1)C(=Cc1ccc(OC)c3ccccc13)C(=O)N2 [10729/D03],14.1%,15.5%
COc1ccc(C=C2C(=O)Nc3c(Br)cc(Br)cc32)c2ccccc12 [10729/A03],1.9%,27.0%
Cc1ccsc1C=C1C(=O)Nc2ccc(Br)c(C)c21 [10729/C05],-5.6%,21.8%
CNS(=O)(=O)c1ccc2c(c1)C(=Cc1c(F)cccc1C(F)(F)F)C(=O)N2 [10728/D09],-3.9%,-2.9%
COc1cc(Br)c(O)c(C=C2C(=O)Nc3ccc(I)cc32)c1 [10718/B03],,-0.2%
CNS(=O)(=O)c1ccc2c(c1)C(=Cc1ccc(SC)cc1)C(=O)N2 [10729/D04],-12.8%,18.8%
CNS(=O)(=O)c1ccc2c(c1)C(=Cc1ccc(N3CCCC3)cc1)C(=O)N2 [10729/D10],-11.3%,11.3%
COc1cccc(OC)c1C=C1C(=O)Nc2ccc(CCCl)cc21 [10728/G03],-8.4%,-2.0%
CSc1ccc(C=C2C(=O)Nc3ccc(S(=O)(=O)Nc4ccc(C(F)(F)F)cc4)cc32)cc1 [10729/E04],26.5%,19.5%
O=C1Nc2ccc(I)cc2C1=Cc1ccc(N2CCCC2)cc1 [10729/B10],-13.9%,68.3%
COc1ccc(OC)c(C=C2C(=O)Nc3ccc(S(=O)(=O)Nc4ccc(C(F)(F)F)cc4)cc32)c1 [10728/E02],15.2%,7.4%
CSc1ccc(C=C2C(=O)Nc3ccc(Br)c(C)c32)cc1 [10729/C04],4.2%,35.9%
CNS(=O)(=O)c1ccc2c(c1)C(=Cc1c(OC)ccc3ccccc13)C(=O)N2 [10729/D02],15.6%,-5.7%
Cc1c(Br)ccc2c1C(=Cc1cccc(Oc3ccccc3)c1)C(=O)N2 [10729/C06],3.1%,38.2%
CNS(=O)(=O)c1ccc2c(c1)C(=Cc1cccnc1)C(=O)N2 [10729/D08],-21.1%,10.3%

Structure (SMILES),PDGF Kinase %Inhibition (PDGF-R),Biochem EGFR %Inhibition (EGFR)
O=C1Nc2c(Br)cc(Br)cc2C1=Cc1ccccn1 [10729/A07],-36.7%,49.0%
CNS(=O)(=O)c1ccc2c(c1)C(=Cc1cccc(Oc3ccccc3)c1)C(=O)N2 [10729/D06],2.7%,45.7%
Cc1c(O)ccc(C=C2C(=O)Nc3c(Br)cc(Br)cc32)c1O [10718/A09],,-4.1%
COc1ccc2ccccc2c1C=C1C(=O)Nc2ccc(S(=O)(=O)Nc3ccc(C(F)(F)F)cc3)cc21 [10729/E02],28.4%,8.0%
CSc1ccc(C=C2C(=O)Nc3c(Br)cc(Br)cc32)cc1 [10729/A04],-16.6%,58.8%
COc1cc(C=C2C(=O)Nc3ccc(S(=O)(=O)Nc4ccc(C(F)(F)F)cc4)cc32)cc2c1OCO2 [10728/E11],8.9%,-5.9%
O=C1Nc2ccc(CCCl)cc2C1=Cc1cccc(C(F)(F)F)c1F [10728/G07],-17.3%,-12.3%
CNS(=O)(=O)c1ccc2c(c1)C(=Cc1cccc(C(F)(F)F)c1F)C(=O)N2 [10728/D07],2.3%,2.4%
O=C1Nc2ccc(I)cc2C1=Cc1ccccn1 [10729/B07],-33.2%,69.0%
Cc1ccc(C=C2C(=O)Nc3c(Br)cc(Br)cc32)s1 [10717/A07],,20.2%
CNS(=O)(=O)c1ccc2c(c1)C(=CC1C=CCCC1)C(=O)N2 (centres unmarked) [10729/D11],0.1%,19.2%
CNS(=O)(=O)c1ccc2c(c1)C(=Cc1ccccc1OCC(=O)O)C(=O)N2 [10728/D10],-3.9%,18.6%
O=C1Nc2ccc(I)cc2C1=CC1C=CCCC1 (centres unmarked) [10729/B11],4.2%,18.8%
O=C1Nc2ccc(I)cc2C1=Cc1cccnc1 [10729/B08],-13.6%,53.2%
O=C1Nc2ccc(S(=O)(=O)Nc3ccc(C(F)(F)F)cc3)cc2C1=Cc1cccc(C(F)(F)F)c1F [10728/E07],28.0%,21.8%
CNS(=O)(=O)c1ccc2c(c1)C(=Cc1cc(C(F)(F)F)ccc1F)C(=O)N2 [10728/D08],2.7%,6.9%
CNS(=O)(=O)c1ccc2c(c1)C(=Cc1ccncc1)C(=O)N2 [10729/D09],-12.1%,22.1%
CNS(=O)(=O)c1ccc2c(c1)C(=Cc1ccccn1)C(=O)N2 [10729/D07],-20.0%,21.4%
O=C1Nc2c(Br)cc(Br)cc2C1=Cc1ccco1 [10718/A10],,41.5%
CCOC(=O)c1cc(C=C2C(=O)Nc3ccc(I)cc32)oc1C [10718/B06],,28.5%
